Experiment [1] deals with LPS triggered IL-10 secretion in monocytes. Description: Monocytes assay: LPS-triggered IL-10 (ELISA). The experiment is classed as cell-based, human. Particulars: LPS 200 ng/mL, supernatant after 4 h, maximal fold change vs LPS only. Summed up: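 Human CD14+ monocytes, magnetically isolated from buffy-coat PBMCs, were seeded at 100 000 cells/well and preincubated with compound for 1 h at 37° C (0.2% DMSO). LPS was then added at a final 200 ng/mL for 4 h. Supernatant IL-10 was quantified by chemiluminescent sandwich ELISA against a standard curve.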
(In general: An ELISA detects its analyte on a solid surface through an enzyme-linked reagent.)

Experiment [2] deals with IL-10. Description: Mouse LPS-induced endotoxic shock, plasma IL-10. It counts as in vivo. On the set-up: key: +: statistically significant induction of IL-10; −: no effect on the level of IL-10. To be noted: p.o., plasma 90 min after LPS challenge. As to the method: (§1) Injection of lipopolysaccharide (LPS) induces a rapid release of soluble tumour necrosis factor (TNFα) into the periphery. This model was used to assess prospective blockers of TNFα release in vivo.
(§2) Lipopolysaccharide (LPS) from Escherichia Coli serotype O111:B4 was obtained from Sigma Aldrich (Cat #L2630).
(§3) BALB/cAnNCrl mice (female, 18-20 g body weight) were obtained from Charles River (Calco, Italy). Mice were kept on a 12 h light/dark cycle. Temperature was maintained at 22±2° C., food and water were provided ad libitum.
(§4) Mice were dosed once by oral (p.o.) or subcutaneous (sc) route with the tested compound in the appropriate vehicle.
(§5) At the Tmax of compound, 100 μg of LPS (in H2O) was injected intraperitoneally to mice. A control group was included which comprises administering the vehicle without an LPS challenge.
(§6) Mice were sacrificed 90 min after LPS challenge and blood was collected in heparinised tubes. Plasma was obtained by centrifugation for 15 min, 2000×g at +4° C. and frozen at −80° C. before cytokine analysis.
(§7) TNFα and IL-10 were quantified in plasma by AlphaLISA detection kits obtained from PerkinElmer (Massachusetts, USA), Cat4 AL505C and AL502C, respectively.
(§8) Statistics were performed with Prism 5.03 software (GraphPad) using an ANOVA analysis of variance with Dunnett's post-hoc test versus LPS group.
(§9) Active compounds were defined as showing a statistically significant decrease in TNFα with or without a statistically significant induction of IL-10

In experiment [3] the test system is LPS-induced TNFα in monocytes. The experiment in a line: Monocytes assay: LPS-triggered TNFα (ELISA). It counts as cell-based, human. Particulars: Homo sapiens, Monocyte, LPS 200 ng/mL, supernatant after 4 h. Summed up:
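Human CD14+ monocytes from buffy-coat PBMCs (magnetic bead selection) were seeded at 100 000 cells/well and pretreated with compound for 1 h at 37° C (0.2% DMSO). They were then stimulated with 200 ng/mL LPS for 4 h, and supernatant TNFα was measured by chemiluminescent sandwich ELISA as percent inhibition.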

For experiment [4], the system named is TNFα. The experiment in a line: Mouse LPS-induced endotoxic shock, plasma TNFα. It counts as in vivo. Also on record: key: +: statistically significant inhibition of TNFα; −: no effect on the level of TNFα. To be noted: p.o., plasma 90 min after LPS challenge. As to the method: as §1, §2, §3, §4, §5, §6, §7, §8, §9

For orientation: EC50 means the concentration giving half of the maximal effect. As to `COc1cc(-c2cnc3cc(OCCN4CCOCC4)ccn23)cc2c1C(=O)N(CC(F)(F)F)CC2` [Cpd 88, 8-methoxy-6-[7-(2-morpholinoethoxy)imidazo [1,2-a]pyridin-3-yl]-2-(2,2,2-trifluoroethyl)-3,4-dihydroisoquinolin-1-one], the “IL-10 FCmax median” value in experiment [1] was “+++ (>4.5)”. The IL-10 result in experiment [2] (3 mg/kg) is reported as “−”; in experiment [2] (10 mg/kg), “+”; in experiment [2] (30 mg/kg), “+”. In addition, the EC50 in experiment [3] was in the range of 0.1 to 1 µM. Also, the TNFα result in experiment [4] (3 mg/kg), in experiment [4] (10 mg/kg) and in experiment [4] (30 mg/kg) was “+” in each case.

For `COc1cc(-c2cnc3cc(OCCN(C)C)ccn23)cc(OC(F)F)c1C(=O)NC1CC1` [Cpd 6, N-cyclopropyl-2-(difluoromethoxy)-4-[7-[2-(dimethylamino)ethoxy]imidazo[1,2-a]pyridin-3-yl]-6-methoxy-benzamide], the “IL-10 FCmax median” value in experiment [1] was “+++ (>4.5)”. For the same compound, the IL-10 result is given as “−” in experiment [2] (3 mg/kg) and “+” in experiment [2] (10 mg/kg). The same compound had an EC50 in experiment [3] (4 h) of 0.1 to 1 µM. Further, the results for the TNFα result in experiment [4] (3 mg/kg) and in experiment [4] (10 mg/kg) were “−” and “+”, respectively.

As to `COc1cc(-c2cnc3cc(OC[C@@H]4COCCO4)ccn23)cc2c1C(=O)N(CC(F)(F)F)CC2` [compound 225, 6-[7-[[(2S)-1,4-dioxan-2-yl]methoxy]imidazo[1,2-a]pyridin-3-yl]-8-methoxy-2-(2,2,2-trifluoroethyl)-3,4-dihydroisoquinolin-1-one], the “IL-10 FCmax median” value in experiment [1] is “+++ (>4.5)”. Also, the IL-10 result in experiment [2] (3 mg/kg) and in experiment [2] (10 mg/kg) was “+” throughout. In experiment [3] (4 h), this compound gave an EC50 of 0.1 to 1 µM. The TNFα entry in experiment [4] (3 mg/kg) and in experiment [4] (10 mg/kg) was “+” throughout.

As to `COc1cc(-c2cnc3cc(OCCN(C)C)ccn23)cc2c1C(=O)N(CC(F)(F)F)CC2` [Cpd 18, 6-[7-[2-(dimethylamino)ethoxy]imidazo[1,2-a]pyridin-3-yl]-8-methoxy-2-(2,2,2-trifluoroethyl)-3,4-dihydroisoquinolin-1-one], the IL-10 entry in experiment [2] (3 mg/kg) and in experiment [2] (10 mg/kg) was “−” in each case. In addition, the TNFα result in experiment [4] (3 mg/kg) and in experiment [4] (10 mg/kg) was “−” each time.

Take `COc1cc(-c2cnc3cc(OC[C@H]4COCCO4)ccn23)cc2c1C(=O)N(CC(F)(F)F)CC2` [Cpd 86, 6-[7-[[(2R)-1,4-dioxan-2-yl]methoxy]imidazo[1,2-a]pyridin-3-yl]-8-methoxy-2-(2,2,2-trifluoroethyl)-3,4-dihydroisoquinolin-1-one]: in experiment [1], the “IL-10 FCmax median” value was “+++ (>4.5)”. Besides, the IL-10 result in experiment [2] (3 mg/kg) and in experiment [2] (10 mg/kg) was “+” each time. The EC50 in experiment [3] (4 h) was in the range of 0.1 to 1 µM. Also, the TNFα entry in experiment [4] (3 mg/kg) and in experiment [4] (10 mg/kg) was “+” throughout.

The record behind these values is patent US12264156B2, “Compounds and pharmaceutical compositions thereof for the treatment of diseases” (GALAPAGOS NV, priority 2018, dated 2025).
